± gives the expanded uncertainty stated by the source.
Assay: xn = mol fraction of the nth substance listed

Cc1nccnc1C [2,3-dimethylpyrazine] + O=C=O
Fluid (supercritical or subcritical phases), Linear displacement technique
Settings	mass density [kg/m3]
347.85 K, 13450 kPa, x1 = 0.184	837 ± 34
347.85 K, 15690 kPa, x1 = 0.184	853 ± 35
348.35 K, 9900 kPa, x1 = 0.433	906 ± 36
348.35 K, 15140 kPa, x1 = 0.433	917 ± 37
348.35 K, 23070 kPa, x1 = 0.433	931 ± 37
350.75 K, 14660 kPa, x1 = 0.108	747 ± 30
350.75 K, 15690 kPa, x1 = 0.108	766 ± 31
350.75 K, 17410 kPa, x1 = 0.108	790 ± 33
352.25 K, 14550 kPa, x1 = 0.057	618 ± 26
352.25 K, 16340 kPa, x1 = 0.057	678 ± 28
352.25 K, 18760 kPa, x1 = 0.057	731 ± 30
354.15 K, 16900 kPa, x1 = 0.157	847 ± 35
354.15 K, 19280 kPa, x1 = 0.157	865 ± 35
354.15 K, 25210 kPa, x1 = 0.157	904 ± 36
355.25 K, 14550 kPa, x1 = 0.049	608 ± 28
355.25 K, 15410 kPa, x1 = 0.049	652 ± 28
355.25 K, 17280 kPa, x1 = 0.049	702 ± 29
357.15 K, 13760 kPa, x1 = 0.433	897 ± 36
357.15 K, 17310 kPa, x1 = 0.433	905 ± 36
357.15 K, 21970 kPa, x1 = 0.433	914 ± 37
358.65 K, 12930 kPa, x1 = 0.291	848 ± 34
358.65 K, 15410 kPa, x1 = 0.291	852 ± 34
358.65 K, 20590 kPa, x1 = 0.291	855 ± 34
360.55 K, 6970 kPa, x1 = 0.736	846 ± 34
360.55 K, 11100 kPa, x1 = 0.736	850 ± 34
360.55 K, 17970 kPa, x1 = 0.736	853 ± 34
362.95 K, 16930 kPa, x1 = 0.086	561 ± 25
362.95 K, 17410 kPa, x1 = 0.086	574 ± 24
362.95 K, 19410 kPa, x1 = 0.086	604 ± 25
365.05 K, 16480 kPa, x1 = 0.057	573 ± 24
365.05 K, 18310 kPa, x1 = 0.057	636 ± 27
365.05 K, 20170 kPa, x1 = 0.057	679 ± 28
365.05 K, 23210 kPa, x1 = 0.057	725 ± 29
365.55 K, 19340 kPa, x1 = 0.184	818 ± 33
365.55 K, 24520 kPa, x1 = 0.184	848 ± 34
365.55 K, 45000 kPa, x1 = 0.184	900 ± 37
368.45 K, 17140 kPa, x1 = 0.108	690 ± 32
368.45 K, 19480 kPa, x1 = 0.108	731 ± 30
368.45 K, 25100 kPa, x1 = 0.108	791 ± 32
368.45 K, 34900 kPa, x1 = 0.108	848 ± 34
371.85 K, 15900 kPa, x1 = 0.027	402 ± 18
371.85 K, 17140 kPa, x1 = 0.027	432 ± 21
373.25 K, 16720 kPa, x1 = 0.049	558 ± 25
373.25 K, 17900 kPa, x1 = 0.049	605 ± 26
373.25 K, 20100 kPa, x1 = 0.049	667 ± 28
373.55 K, 9210 kPa, x1 = 0.565	867 ± 35
373.55 K, 12380 kPa, x1 = 0.565	873 ± 35
373.55 K, 18520 kPa, x1 = 0.565	883 ± 35
374.25 K, 17410 kPa, x1 = 0.086	507 ± 21
374.25 K, 18100 kPa, x1 = 0.086	521 ± 22
374.25 K, 18900 kPa, x1 = 0.086	540 ± 23
375.05 K, 18100 kPa, x1 = 0.033	466 ± 20
375.05 K, 19410 kPa, x1 = 0.033	499 ± 21
375.05 K, 20690 kPa, x1 = 0.033	526 ± 22
375.85 K, 20590 kPa, x1 = 0.157	805 ± 35
375.85 K, 23340 kPa, x1 = 0.157	829 ± 33
375.85 K, 26520 kPa, x1 = 0.157	856 ± 34
380.65 K, 12760 kPa, x1 = 0.433	852 ± 34
380.65 K, 16100 kPa, x1 = 0.433	861 ± 34
380.65 K, 21660 kPa, x1 = 0.433	876 ± 35
381.45 K, 15210 kPa, x1 = 0.291	831 ± 33
381.45 K, 15690 kPa, x1 = 0.291	830 ± 33
381.45 K, 21340 kPa, x1 = 0.291	841 ± 34

Liquid, linear displacement
Settings	mass density [kg/m3]
347.85 K, x1 = 0.184	826 ± 33
348.35 K, x1 = 0.433	902 ± 36
350.75 K, x1 = 0.108	725 ± 29
354.15 K, x1 = 0.157	814 ± 33
357.15 K, x1 = 0.433	886 ± 35
358.65 K, x1 = 0.291	848 ± 34
360.55 K, x1 = 0.736	845 ± 34
362.95 K, x1 = 0.086	530 ± 22
365.55 K, x1 = 0.184	774 ± 32
368.45 K, x1 = 0.108	663 ± 27
373.55 K, x1 = 0.565	865 ± 35
374.25 K, x1 = 0.086	490 ± 21
375.85 K, x1 = 0.157	764 ± 31
380.65 K, x1 = 0.433	848 ± 34
381.45 K, x1 = 0.291	829 ± 33

Source: the NIST ThermoML archive (doi:10.1021/je0601457)
